In article PMC8185805, “An improved method for the incorporation of fluoromethyl ketones into solid phase peptide synthesis techniques” (RSC Advances, 2021):
*: point of attachment. Cbz = O=C(OCc1ccccc1)*; CH2F = FC*

Test system: 3CL^pro of SARS-CoV-2
Settings: pH 7.6

In the case of Cbz-SAVLD(OMe)-CH2F [compound 15], the “3CL^pro protease activity in the presence of PFMK inhibitor (gel-based cleavage of FLAG-His-SAVLQ-nsp9)” value is reported as “completely abolished”.
